US20220257569A1, “INDOLE-OXADIAZOLE COMPOUNDS AND THEIR THERAPEUTIC USE” (THE GOVERNING COUNCIL OF THE UNIVERSITY OF TORONTO, priority 2018, published 2022)

What was measured:
cannabinoid CB1 receptor = biological target: T1, cannabinoid CB1 receptor (Homo sapiens, UniProt P21554); experiment: PathHunter β-Arrestin assay (allosteric inhibition of agonist Emax); assay type: cell-based; details: HEK293 CB1 β-arrestin cells; concentration of modulator giving 50% reduction in agonist Emax; 60 min pre-incubation
T1 construct: host or cells: HEK293 CB1 β-arrestin cells
T1 sequence (P21554 whole entry): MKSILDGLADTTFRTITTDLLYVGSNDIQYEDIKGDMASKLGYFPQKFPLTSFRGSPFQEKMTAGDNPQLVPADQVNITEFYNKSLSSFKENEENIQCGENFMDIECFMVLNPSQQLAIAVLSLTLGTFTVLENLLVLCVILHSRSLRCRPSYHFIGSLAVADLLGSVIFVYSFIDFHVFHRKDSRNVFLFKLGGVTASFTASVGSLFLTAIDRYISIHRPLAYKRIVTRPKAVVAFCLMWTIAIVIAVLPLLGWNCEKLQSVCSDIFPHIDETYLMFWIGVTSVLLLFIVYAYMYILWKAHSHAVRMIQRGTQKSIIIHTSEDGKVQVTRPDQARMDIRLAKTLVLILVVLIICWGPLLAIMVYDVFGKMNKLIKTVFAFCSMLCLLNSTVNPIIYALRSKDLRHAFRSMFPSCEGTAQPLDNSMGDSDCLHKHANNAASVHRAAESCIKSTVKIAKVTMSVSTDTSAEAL
From the text: PathHunter™ enzyme fragment complementation is the most important method to measure β-arrestin recruitment. PathHunter™ β-Arrestin assays developed by DiscoveRX are revolutionary high-throughput screening assays for monitoring GPCR activation following ligand stimulation, without an imaging instrument, fluorescent protein tag, or radioactivity.
Instead, the assays detect GPCR activation through binding of β-arrestin to the expressed GPCR of interest, and measure the interaction of the two proteins using enzyme fragment complementation (EFC). The EFC approach offers a range of benefits for screening, including signal amplification and robust performance.
The larger portion of β-gal, termed EA for enzyme acceptor, is fused to the C-terminus of β-arrestin. The smaller, complementing fragment of β-gal, the ProLink™ tag, is expressed as a fusion protein with the GPCR of interest at the C-terminus. Upon activation, the GPCR is bound by β-arrestin. The interaction of β-arrestin and the GPCR forces the interaction of ProLink and EA, thus allowing complementation of the two fragments of β-gal and the formation of a functional enzyme capable of hydrolyzing substrate and generating a […] signal.
Using the PathHunter™ CB1 kit from DiscoveRX, a cannabinoid CB1 receptor agonist is added and activates the receptor, EA, which is fused to the C-terminus of β-arrestin, and then interacts with the ProLink™ tag which is fused to the CB1 receptor. This will result in the […] signal that is recorded by a luminescence plate reader. The […] signal is directly related to the activation of the receptor, therefore a higher concentration of agonist will yield a larger […] signal. The cannabinoid agonist is added in increasing concentrations to obtain an agonist dose response curve. With pre-incubation of a potential allosteric modulator, either an enhancement of agonist activity with an allosteric enhancer or a decrease in the maximal response of the agonist with an allosteric inhibitor is expected.
All raw data are obtained as luminescence (relative light units), and are normalised and presented as a percentage of the maximal response for the cannabinoid CB1 receptor agonist CP55,940 (2-[(1R,2R,5R)-5-hydroxy-2-(3-hydroxypropyl)cyclohexyl]-5-(2-methyloctan-2-yl)phenol).
The PathHunter™ β-Arrestin assay (from DiscoveRX, Fremont, USA) was performed as follows. HEK293 CB1 β-arrestin cells were plated 48 hours before use and incubated at 37° C., 5% CO2 in a humidified incubator. Test compounds were dissolved in dimethylsulfoxide (DMSO) and diluted in optimized cell culture (OCC, as supplied by DiscoveRX) media to the required concentrations. 5 μL of test compound or vehicle solution was added to each well and incubated for 60 minutes at 37° C., 5% CO2 in a humidified incubator. 5 μL of increasing concentrations of anandamide was added to each well followed by a 90-minute incubation at 37° C., 5% CO2 in a humidified incubator. 55 μL of detection reagent (as supplied by DiscoveRX) was then added, followed by a further 90 minute incubation at room temperature in the dark. Chemiluminescence, reported in relative light units (RLU—a dimensionless value, standardised as a % of maximum stimulation with anandamide), was measured on a standard luminescence plate reader.
Data were plotted as % of maximal stimulation (Emax) caused by agonist versus the logarithm of concentration of agonist, in the presence or absence of a fixed concentration of test compound (modulator) or vehicle. For example, stimulation in the presence of agonist alone will give a value for stimulation expressed in RLU, which can be expressed as a range from 0% (at lowest agonist concentration, e.g., 1 nM) to 100% (at the highest agonist concentration, e.g., 10 μM). […]

[1] = Human liver microsomal stability assay; assay type: in vitro ADME; details: both sexes, pH 7.4; pooled human liver microsomes 0.5 mg/mL, 3 μM compound, NADPH, 37° C., 45 min; read-out: Microsomal stability T1/2 Human
Procedure: (§1) Metabolic stability of indole-oxadiazole derivatives of Formula I was measured by determination of the rate of compound disappearance when incubated in the presence of human or rat liver microsomes. Liver microsomes are prepared from the endoplasmic reticulum of hepatocytes and are the primary source of the most important enzymes (cytochrome P450) involved in drug metabolism. Study of drug stability in the presence of liver microsomes is accepted as a valuable model permitting rapid prediction of in vivo drug stability.
(§2) Human and rat liver microsomes were obtained from commercial sources. Test compounds (3 μM) were incubated with pooled liver microsomes (male and female). Samples were incubated for a 45 minute period and removed at 5 time points and test compounds were analysed by LC-MS/MS.
(§3) Microsomes (final protein concentration 0.5 mg/mL), 0.1 M phosphate buffer pH 7.4, and test compound (final concentration 3 μM; diluted from 10 mM stock solution to give a final DMSO concentration of 0.25%) were incubated at 37° C. prior to the addition of NADPH (final concentration 1 mM) to initiate the reaction. The final incubation volume was 25 μL. A control incubation was included for each compound tested, where 0.1 M phosphate buffer pH 7.4 was added instead of NADPH. The control compounds testosterone and 7-hydroxycoumarin were included in each experiment and all incubations were performed singularly for each compound.
(§4) Each compound was incubated for 0, 5, 15, 30, and 45 minutes. The control (minus NADPH) was incubated for 45 minutes only. The reactions were stopped by the addition of 50 μL methanol containing internal standard at the appropriate time points. The incubation plates were centrifuged at 2500 rpm for 20 minutes at 4° C. to precipitate the protein.
(§5) Following protein precipitation, the sample supernatants were combined in cassettes of up to 4 compounds and analysed using standard LC-MS/MS conditions.
(§6) From a plot of the natural logarithm of the peak area ratio (i.e., the ratio of compound peak area:internal standard peak area) against time, the gradient of the line was determined. Subsequently, half-life and intrinsic clearance were calculated using the equations below:
(§7) Eliminated rate constant (k)=(−gradient).

[2] = Rat liver microsomal stability assay; assay type: in vitro ADME; details: both sexes, pH 7.4; pooled rat liver microsomes 0.5 mg/mL, 3 μM compound, NADPH, 37° C., 45 min; read-out: Microsomal stability T1/2 Rat
Procedure: as §1, §2, §3, §4, §5, §6, §7

CB1 receptor [3] = biological target: T2, CB1 receptor (Mus musculus, UniProt P47746); details: equilibrium binding assay, cited from earlier work; for effect on binding of CP55940: agonist CP55940
T2 sequence (P47746 whole entry): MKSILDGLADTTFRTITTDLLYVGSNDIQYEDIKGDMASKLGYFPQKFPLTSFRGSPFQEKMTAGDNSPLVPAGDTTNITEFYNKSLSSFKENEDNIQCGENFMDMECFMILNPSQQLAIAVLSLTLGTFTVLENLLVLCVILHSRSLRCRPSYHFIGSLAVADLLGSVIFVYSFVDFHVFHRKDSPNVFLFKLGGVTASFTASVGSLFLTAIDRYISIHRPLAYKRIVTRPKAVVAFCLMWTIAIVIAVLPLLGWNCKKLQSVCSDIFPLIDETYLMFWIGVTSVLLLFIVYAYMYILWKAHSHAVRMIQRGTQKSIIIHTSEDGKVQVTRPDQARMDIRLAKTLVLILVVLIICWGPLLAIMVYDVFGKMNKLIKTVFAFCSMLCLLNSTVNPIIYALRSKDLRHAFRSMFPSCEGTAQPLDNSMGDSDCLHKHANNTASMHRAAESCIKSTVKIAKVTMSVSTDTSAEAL

CB1 receptor [4] = biological target: T2, CB1 receptor; parameters: from the CB1 receptor in mouse brain membranes; from tissue; host or cells: mouse brain membranes; details: mouse brain membranes; cited from earlier work

SMILES | IC50 (cannabinoid CB1 receptor) [µM] | half-life at 3 μM [1] [min] | half-life at 3 μM [2] [min] | melting point [°C] | effect on binding of CP55940 (CB1 receptor [3]) | effect on binding of radiolabelled inverse agonist SR141716A (CB1 receptor [3]) | effect on dissociation of radiolabelled CB1 receptor agonist CP55940 (CB1 receptor [4])
CCc1c(-c2nnc(SCc3ccccc3)o2)[nH]c2ccc(Cl)cc12 [ABM328, 2-(Benzylthio)-5-(5-chloro-3-ethyl-1H-indol-2-yl)-1,3,4-oxadiazole] | 0.058 | 46 | 40 | 180 to 182 |  |  | 
CCc1c(-c2nnc(Nc3ccc(F)cc3)o2)[nH]c2ccc(Br)cc12 [ABM338, 5-(5-Bromo-3-ethyl-1H-indol-2-yl)-N-(4-fluorophenyl)-1,3,4-oxadiazol-2-amine] | 0.001 | 174 | 292 | 243 to 245 |  |  | 
CCc1c(-c2nnc(SCc3ccc(F)cc3)o2)[nH]c2ccc(Br)cc12 [ABM340, 2-(5-Bromo-3-ethyl-1H-indol-2-yl)-5-((4-fluorobenzyl)thio)-1,3,4-oxadiazole] | 0.019 | 40 | 23 | 185 to 187 |  |  | 
CCc1c(C(=O)NCCc2ccc(N(C)C)cc2)[nH]c2ccc(F)cc12 [ORG27759] |  |  |  |  | increase | decrease | slowing of the dissociation
CCc1c(C(=O)NC2CCN(Cc3ccccc3)C2)[nH]c2ccc(Cl)cc12 (stereo not drawn) [ORG29647] |  |  |  |  | increase | decrease | slowing of the dissociation
CCc1c(C(=O)NCCc2ccc(N3CCCCC3)cc2)[nH]c2ccc(Cl)cc12 [Reference compound 1 (Org27569)] |  | 32 | 28 |  | increase | decrease | slowing of the dissociation
O=S(=O)(NCc1ccc(-c2ccc(F)cc2F)cn1)c1cc2cc(Cl)ccc2[nH]1 [Reference compound 2 (ABD1075), reference compound] |  | 56 | 32 |  |  |  | 
O=S(=O)(NCc1ccc(-c2ccc(F)nc2F)cc1)c1cc2cc(Cl)ccc2[nH]1 [Reference compound 3 (ABD1085), reference compound] |  | 39 | 48 |  |  |  | 
